Results reported in patent publication US20130195956A1, “Transdermal Hormone Delivery” (Agile Therapeutics, Inc., priority 2012, published 2013).
Where “and” joins values, the source holds several entries; their conditions need not be identical. Equal values may be shown once.

How the values were obtained:
[1] = 7 day in vitro skin permeation, Franz diffusion cells, hairless rat abdominal skin; conditions: for average cumulative amount permeated at the end of 7 days: donor: saturated solution in PEG-400, FIG. 6
Source text: Skin was isolated from hairless rats (male, 8-10 weeks old and 350-400 g in weight) that were obtained from Charles River (Wilmington, Mass., USA). All the animals were allowed to acclimate for at least 1 week prior to their use in any experiment. […] Hairless rats were euthanized by carbon dioxide asphyxiation prior to the permeation experiment and abdominal skin was carefully excised using a pair of scissors and forceps. The underlying subcutaneous fat was removed from the excised skin and the abdominal skin thus obtained (˜1 mm thick) was used for the permeation experiments.
The 7 day permeation studies were performed using in vitro Franz diffusion cells (PermeGear, Inc., Hellertown, Pa., USA) having an effective diffusion surface area of 0.64 cm^2 (n≧3). […] These served as corresponding donor solutions. The receptor phase consisted of PEG 400 having gentamycin sulfate (80 mg/L). Gentamycin sulfate was added to the receptor phase to prevent microbial growth during the 7 day study. During the entire study, the receptor phase was maintained at 37° C. with constant stirring at 600 rpm. Freshly excised and cleaned hairless rat abdominal skin was obtained on the day of the experiment. This isolated skin was placed in between the donor and the receptor compartments and the entire set up was then secured in place using a clamp. Donor solution (0.5 ml) was then loaded into the donor cells using a pipette and the top was covered using parafilm and a silver foil. […] The only difference was that instead of using the saturated desogestrel solution as donor, desogestrel containing patches were used. Transdermal patches, large enough to cover the receptor compartment top, were cut out of the cast sheets, the release liner was removed and the patches were placed on the skin such that the adhesive side of the patch was facing the stratum corneum side of the skin. The donor cell was then placed and the entire set up was secured using a clamp. All samples obtained were analyzed using HPLC.
Analysis of the amount of drug in the samples was performed using a chromatographic method described in the literature with few modifications. […] Phenomenex RP C6 Luna 5μ column (Phenomenex, Torrance, Calif.) set at 35° C. was employed for gradient elution method. The mobile phase consisted of methanol and water. The gradient method was initiated with the use of a 70:30 (methanol:water) solution, followed by a change of the mobile phase composition to 100% methanol over the next 7 minutes. This methanol:water (100:0) composition was maintained till the 10th minute and then the mobile phase composition was changed again to a composition of 70:30 (methanol:water) by the 12th min. The run time of each injection was 15 minutes and the injection volume was 100 μl. The flow rate of the mobile phase throughout the run was 1.5 ml/min. […] The standard curve was linear over the range of 0.5-100 μg.
Student t-test and analysis of variance (ANOVA) were used to determine statistically significant differences. The p-value used in this study was 0.05.

[2] = cited from earlier work
[3] = Slide and patch crystallization studies for saturation solubility in adhesives and additives; assay type: physicochemical
Method: Drug in adhesive transdermal patches were prepared as follows. Predetermined amounts of drug, adhesive, ethyl acetate and/or additives (copovidone/mineral oil) were weighed into a glass container with lid and sealed using a parafilm to minimize loss of organic solvents. The formulation was stirred for 2 hours using a magnetic stirrer to form a homogenous mixture. The mixture was then cast on a release liner (3 mil fluoropolymer coated polyester film, Scotchpak™ 9744 from 3M) using a Gardner film casting knife (BYK-AG-4300 series, Columbia, Md., USA) and the cast sheet was dried in an oven at 60° C. for 17 minutes. Thereafter, the entire sheet was laminated using a backing membrane (2 mil polyester with an ethylene vinyl acetate copolymer, Scotchpak™ 9732 from 3M), which was placed on the cast film using a roller, ensuring no air pockets were formed. […]
The three different adhesives that were investigated for the preparation of desogestrel transdermal patches were two acrylate adhesives, Duro-Tak 87-4098 and Duro-Tak 87-202A, and one PIB adhesive, Duro-Tak 87-608A. […] The saturation solubility of desogestrel in these adhesives was determined using the slide method discussed earlier as well as crystallization studies on complete patches. […]

[4] = Method: Sheets were cast with the blend shown in Table 1 and dried for 17 minutes at 60 degrees Centigrade. Drying was followed by lamination to a polyester backing membrane and circular cutting of individual patches. The dry formulation of the patches is shown in the second column of Table 1.
[5] = Skin permeation of LNG from LNG/EE patches with four enhancers, Franz diffusion cells, human skin compared with rat skin; assay type: in vitro ADME; conditions: patches of Example 1 with four skin permeation enhancers; FIGS. 1-4
Method: A skin permeation experiment for the delivery of LNG from the patches prepared in Example 1 was performed (n=3). Three separate patches were cut to appropriate size such that they would cover the top of the receptor compartment of a Franz skin diffusion cell (exposed surface area of 0.64 cm^2). Hairless rat skin was freshly excised before the permeation experiment. PBS (0.1×) having 80 mg/L gentamycin sulfate and 0.5% Volpo was used as the receptor buffer (pH 7.2). Samples (0.5 ml) were taken at predetermined time points (3 hr, 6 hr, 12 hr, 24 hr, 2nd, 3rd, 4th, 5th, 6th and 7th day) and were analyzed for LNG levels using High Pressure Liquid Chromatography (HPLC).
The average flux (FIG. 1) and the cumulative amount (FIG. 2) of LNG that permeated across the hairless rat skin, during a period of four days, were determined and are shown below. In addition, patches manufactured using production equipment under the same processes and containing exactly the same amounts and ingredients as the pilot patches mentioned in Example 1 were used for comparison.
The above studies were performed using rat skin, which, for many drugs, is known to have similar permeation characteristics as human skin. […]

[6] = general statement in description

Row | SMILES | average cumulative amount permeated at the end of 7 days ([1]; hairless rat skin) [μg/sq.cm] | skin permeation relative to ethinyl estradiol [1, 6] | skin permeation relative to levonorgestrel [1, 6] | average cumulative amount and flux from saturated PEG solution compared with optimized patches ([1]; p<0.05, hairless rat skin) | average flux and cumulative amount compared with levonorgestrel ([1]; saturated PEG-400 solutions, p<0.05, FIGS. 5 and 6) | logP [2] | saturation solubility in PIB adhesive (Duro-Tak 87-608A) ([3]; slides and patches) | saturation solubility in copovidone (Plasdone S-630) ([3]; slides, drug:copovidone w/w ratios, up to 6 months) | saturation of the patch with the hormone [4] [%] | permeation through rat skin compared with permeation through human skin [5]
1 | C#C[C@]1(O)CC[C@H]2[C@@H]3CCC4=CCCC[C@@H]4[C@H]3C(=C)C[C@@]21CC [desogestrel] | 389.4±6.2 | higher | approximately ten-fold higher | significantly higher | significantly higher | 4 | 3-4 % w/w | 70-80 % w/w and 70 % w/w | – | –
2 | C#C[C@]1(O)CC[C@H]2[C@@H]3CCc4cc(O)ccc4[C@H]3CC[C@@]21C [ethinyl estradiol] | – | – | – | – | – | – | – | – | 22 | –
3 | C#C[C@]1(O)CC[C@H]2[C@@H]3CCC4=CC(=O)CC[C@@H]4[C@H]3CC[C@@]21CC [levonorgestrel] | 1.8±0.1 | – | – | – | – | 3.8 | – | – | – | very similar
